Earlier results as cited in patent publication EP2908850B1, “A COMPOSITION COMPRISING GLUCORAPHANIN, MYROSINASE AND A BUFFERED SOLUTION FOR USE IN THE TREATMENT OF NEURODEGENERATIVE DISEASES” (Bramanti, Placido, priority 2012, dated 2014).

Details: state of the art statement

In the case of `C[S+]([O-])CCCCN=C=S` (racemic) [RS,SS-SFN, sulforaphane], the solubility in water is listed as “slightly soluble in water” and the stability is listed as “unstable”.
